Measurements: patent publication US20050182002A1, “Agents which interact with a serotonin transporter for the treatment of cancer” (priority 2002, published 2005)
Read-outs that look alike come from different tables or passages of the source.

Tests used:
Type in all cases: cell-based
[1] = system: L3055 cells; assay: Viability by FACS forward versus side light scatter
Description: (§1) Changes in the viability of cells cultured under conditions indicated below were quantified by assessment of forward and 90° (side) light scatter of cells as previously described (Dive C, et al. Biochimica Biophysica Acta (1992); 1133:275-285) using an EPICS XL-MCL flow cytometer (Beckman Coulter, Miami, Fla., USA). Prior to analysis, cells were harvested into polythene FACS tubes, and fixed at 4° C. in 400 μl of FACS buffer [PBS with 5% NGS and 2% Formaldehyde] (BDH/MERCK). Cells were gated in two populations (viable and dead) according to their forward and side light scatter. Viability was expressed as a percentage of the total number of cells residing in the viable and non-viable gates. Cells were also analysed according to Schuurhuis et al (Schuurhuis G J, et al. Exp. Haematol. (1997); 25:754-759) in order to assess the percentages within treated populations of those that were viable, apoptotic, or necrotic. Syto 16 was added at a concentration of 250 nM in PBS to 500,000 cells and incubated at RT for 30 min, at which time 5 μg/ml propidium iodide (PI) was added. Samples were then analysed immediately by FACS and a 2D plot generated of syto 16 fluorescence versus PI fluorescence: syto 16 is taken up only by viable cells whereas Pi exclusively enters necrotic cells—syto 16^−ve/PI^−ve cells are deemed apoptotic.

[2] = system: L3055 cells; assay: Cell cycle analysis (propidium iodide, flow cytometry); settings: 24 hr; each at its maximal concentration (5-HT 150 μM, fluoxetine 10 μM, anti-μ chain antibody 10 μg/ml)
Description: Cells cultured under conditions indicated below were harvested into 100 μl of 1×PBS followed by 400 μl cell cycle buffer containing Triton X-100 and propidium iodide and left to incubate at 4° C. for 1 hr to allow staining of DNA. The degree of fluorescence emitted by bound PI is directly proportional to the amount of DNA in each cell and was measured by flow cytometry as previously described (MacDonald I, et al. Blood (1996); 87:1147-1154). Results are expressed as percentage of viable cells residing in each phase of the cycle.

[3] = system: L3055 cells; assay: OxyDNA assay of oxidative damage to DNA; settings: 6 hr; 150 μM 5-HT or 30 μM H2O2
Description: Oxidative damage to DNA was quantified using the OxyDNA assay (Biotrin, Dublin, Ireland). Following culture of cells under conditions indicated below, they were washed first in 1×PBS then in wash solution followed by addition of 100 μl of blocking solution with a 1 hr incubation at 37° C. On washing twice in working solution, cells were then incubated with 100 μl FITC-conjugate for 1 hr in the dark at RT before being washed twice in washing solution and once in PBS. Finally, cells were resuspended in FACS buffer and analysed on an EPICS XL-MCL flow cytometer.
While the above experiments offer evidence that oxidative stress was not the cause of 5-HT-induced apoptosis in BL cells, further more direct examination of the generation of potential reactive oxygen species (ROS) as a consequence of 5-HT uptake was undertaken. For this the OxyuDNA assay was used, which quantifies 8-oxo-7,8-dihydro-2′-deoxyguanosine (8-oxodGuo) residues that are generated as a result of oxidative damage to DNA (see methods section 1.1.8 above).

[4] = system: L3055 cells; assay: Caspase activity (FAM-VAD-FMK, FACS); settings: for effect on number of cells showing caspase activity (in words): single dose for 24 hours, fluoxetine 10 μM, paroxetine 10 μM, citalopram 100 μM
Description: Caspase activity was detected using the CaspaTag Caspase Activity Kit (Intergen, Oxford, UK). Cells cultured under the conditions indicated below were harvested into 300 μl of culture medium at a cell density of 10^6cells/ml, followed by the addition of […] of a 30×working solution of FAM-VAD-FMK (a carboxy fluorescent tagged caspase inhibitor) (Intergen Co., USA). Cells were then incubated for 1 hr at 37° C. under 5% CO2 while protecting the tubes from light. At the end of the incubation, they were washed twice in 2 ml of 1×washing buffer, followed by addition of 2 μl of PI to distinguish dead cells from live cells, then analysed on an EPICS XL-MCL flow cytometer or by confocal microscopy. For the latter, treated cells were harvested into 300 μl of culture medium containing 10 μl of FAM-VAD-FMK before incubating for 1 hr under the conditions described above. Next, 1.5 μl of Hoechst 33342 stain was added for 5 min, and cells were washed twice in 2 ml of 1×washing buffer following the addition of 1 μl of PI.

[5] = system: L3055 BL cells; assay: DNA synthesis by [3H]-thymidine incorporation in L3055 cells; settings: for inhibition at 50 µM: L3055, 5-HT 50 μM; for effect on DNA synthesis (in words): single dose, range of concentrations, [3H]-thymidine incorporation at 24 hr; for influence of pre-treatment on 5-HT-dependent inhibition of DNA synthesis (in words): cells pre-treated with agent before 5-HT
Description: (§2) DNA synthesis was determined by measuring ^3H-thymidine ([^3H]Tdr; Amersham, UK) incorporation into cellular DNA. Cells were cultured in 200 μL of supplemented medium at densities and for times indicated below in flat-bottomed, 96-well tissue culture plates (Becton Dickinson, Oxford, U K) then pulsed for the final 4 h with 50 μl of 10 μCi/ml [^3H]Tdr before harvesting on a Skatron cell harvester (Helis Bio Ltd, Newmarket, UK).

[6] = system: L3055 cells; assay: Mitochondrial depolarisation with JC-1 dye; settings: following exposure to 5-HT; not shown
Description: Apoptosis was assessed by staining cells with acridine orange and visualising nuclear morphology exactly as described previously (Gordon J, et al. Cell Death. Diff. (2000); 7:785-794). Viable cells display a homogeneous chromatin-staining pattern, whereas apoptotic cells characteristically show condensed and fragmented chromatin. Mitochondrial depolarisation was assessed using the JC-1 cationic dye. Cells were incubated with 10 μM of JC-1 for 30 min before being visualised on a LSM 510 confocal microscope (Zeiss, Germany). […] Mitochondrial depolarisation is indicated by a decrease in the red/green fluorescence ratio.

[7] = system: T-cell leukaemia line, Jurkat; assay: 5-HT sensitivity of Jurkat line; settings: not shown
[8] = system: group I BL cell lines Mutu I, Elijah, and BL2; assay: DNA synthesis by [3H]-thymidine incorporation in other group I BL cell lines; settings: 125 μM 5-HT, 24 hr
Description: as §2
(§3) Three other group I BL cell lines were also investigated, namely: Mutu I, Elijah, and BL2.

[9] = system: L3055 cells; assay: Syto 16 / propidium iodide staining (viable, apoptotic, necrotic); settings: increasing concentrations, 24 hr
Description: as §1

[10] = system: Mutu III, an apoptosis resistant (group III) BL cell line; assay: DNA synthesis by [3H]-thymidine incorporation in Mutu III; settings: 125 μM 5-HT, 24 hr
Description: as §2, §3

[11] = system: Bcl-2 transfected BL cell line; assay: Viability (FACS light scatter) of Bcl-2 transfected BL cell line
Description: Group I Burkitt's lymphoma cell lines L3055 (EBV^neg), BL2 (EBV^neg), Elijah (EBV^pos), and MUTU I (EBV^pos) were maintained in early passage as described previously (Baker M P, Eliopoulos E, Young L S, Armitage R J, Gregory C D, Gordon J. Blood (1998); 92:2830-2843). The late passage group III BL line MUTU III (EBV^pos) was also used with all cells cultured in RPMI 1640 medium supplemented with 10% Serum Supreme (BioWhittaker, Wokingham, UK), 2 mM glutamine, 100 IU/ml penicillin and 100 μg/ml streptomycin. […]
Changes in the viability of cells cultured under conditions indicated below were quantified by assessment of forward and 90° (side) light scatter of cells as previously described (Dive C, et al. Biochimica Biophysica Acta (1992); 1133:275-285) using an EPICS XL-MCL flow cytometer (Beckman Coulter, Miami, Fla., USA). […] Viability was expressed as a percentage of the total number of cells residing in the viable and non-viable gates. Cells were also analysed according to Schuurhuis et al (Schuurhuis G J, et al. Exp. Haematol. (1997); 25:754-759) in order to assess the percentages within treated populations of those that were viable, apoptotic, or necrotic. […]

[12] = system: L3055 cells; assay: Intracellular free Ca2+; settings: data not shown
Excerpt: The increase in intracellular free Ca^2+ is known to be an important step in the induction of apoptosis.

SMILES: NCCc1c[nH]c2ccc(O)cc12 [Example 5-HT, Serotonin]
- cells with light scatter characteristics of dead cells (in words) ([1]; 1 to 150 μM, 24 hr): dramatic concentration-dependent increase in the number of L3055 cells acquiring light scatter characteristics of dead cells
- viability at 150 µM ([1]; L3055, 24 h, read-out: % viable cells (24 h)): 21.3 ± 8.65%
- cell cycle status (in words) [2]: accumulation of arresting cells in the G0/G1 compartment
- level of oxidatively damaged DNA (8-oxoguanosine residues) (in words) [3]: no increase in the level of oxidatively damaged DNA
- % caspase activation (6 h) ([4]; 5-HT 150 μM, fluoxetine 5 μM, paroxetine 2 μM, citalopram 10 μM, means ± S.E.M. of 3, control 27.3 ± 1.20): 58.3 ± 2.03%
- percentage of cells showing caspase activity ([4]; 6 hr 5-HT treatment, background level 29%): 59%
- effect on level of DNA synthesis (in words) ([5]; 1 μM 5-HT, very early passage, lower cell numbers, data not shown): significant reduction
- inhibition at 50 µM ([5]; cells plated at 2×10^4 per well): ~35%
- inhibition at 50 µM ([5]; cells plated at 5×10^3 per well): > 90%
- inhibition at 50 µM ([5]; cells plated at 10^4 per well): ~70%
- IC50 ([5]; L3055, read-out: 5-HT required to achieve 50% inhibition of DNA synthesis, plated at 2.5×10^4 per ml (5×10^3 per well)): ~5 µM
- IC50 ([5]; L3055, read-out: 5-HT required to achieve 50% inhibition of DNA synthesis, plating density 10^5 per ml (2×10^4/well)): > 50 µM
- effect on DNA synthesis (in words) [5]: caused a reduction in DNA synthesis in a concentration-dependent manner
- mitochondrial membrane potential (in words) [6]: loss of mitochondrial membrane potential
- sensitivity to 5-HT actions (in words) [7]: insensitive
- effect on DNA synthesis (in words) [8]: substantial decrease in DNA synthesis
- number of viable cells (syto 16+ve/PI−ve) (in words) [9]: decreased in a concentration-dependent manner
- effect on DNA synthesis (in words) [10]: only marginally decreased DNA synthesis

SMILES: OO [Example H2O2, H2O2]
- level of oxidatively damaged DNA (8-oxoguanosine residues) (in words) [3]: large increase in the level of 8-oxoguanosine residues generated

SMILES: CCN(CC)CCOC(=O)c1cc(Cl)c(N)cc1OC [SDZ205-557]
- influence of pre-treatment on 5-HT-dependent inhibition of DNA synthesis (in words) [5]: failed to influence the ability of 5-HT to inhibit DNA synthesis

SMILES: C#CCN(C)CCCOc1ccc(Cl)cc1Cl [clorgyline]
- influence of pre-treatment on 5-HT-dependent inhibition of DNA synthesis (in words) [5]: the same outcome was observed

SMILES: C#CCN(C)[C@H](C)Cc1ccccc1 [deprenyl]
- influence of pre-treatment on 5-HT-dependent inhibition of DNA synthesis (in words) [5]: the same outcome was observed

SMILES: CN(C)CCCN1c2ccccc2CCc2ccccc21 [imipramine]
- survival (live cells) ([1]; native cell line (panel I, FIG. 26)): 30%
- effect on number of cells showing caspase activity (in words) [4]: significant effect on the number of cells exhibiting caspase activity
- effect on DNA synthesis (in words) [5]: dose dependant effect
- cell killing in Bcl-2 transfected versus native BL cell line (in words) ([11]; 24 hrs): greatly reduced
- survival (live cells) ([11]; Bcl-2 transfected BL cell line (panel II, FIG. 26)): 91%

SMILES: C#CCN(C)Cc1ccccc1 [pargyline]
- effect of agent by itself on DNA synthesis (in words) ([5]; 100 μM pargyline, no 5-HT): no deleterious effect by itself
- influence of pre-treatment on 5-HT-dependent inhibition of DNA synthesis (in words) [5]: failed to influence 5-HT-induced cessation of DNA synthesis

SMILES: Fc1ccc([C@@H]2CCNC[C@H]2COc2ccc3c(c2)OCO3)cc1 [paroxetine]
- effect on number of cells showing caspase activity (in words) [4]: significant effect on the numbers of cells showing caspase activity
- influence of pre-treatment on 5-HT-dependent inhibition of DNA synthesis (in words) [5]: substantially reversed
- effect on DNA synthesis (in words) [5]: dose dependent inhibitory effect
- basal Ca2+ (in words) [12]: increase in basal Ca^2+
